# Data from patent US12168781B2, “Production method for T cells or NK cells, medium for culturing T cells or NK cells, method for culturing T cells or NK cells, method for maintaining undifferentiated state of undifferentiated T cells, and growth-accelerating agent for T cells or NK cells” (KIRIN HOLDINGS KABUSHIKI KAISHA, priority 2018, dated 2024).
# Tests used:
# Format in all cases: cell-based, human
# [1] = tested on: regulatory T cells (Treg); test: Proliferation of regulatory T cells (number of FoxP3-positive cells); conditions: 1 μM, 6 days, CD3 T cells of 3 healthy donors, FIG. 17
# Experimental: The usefulness of berbamine (BBM) in the proliferation of regulatory T cells (Treg) was verified. As a method therefor, CD3 T cells were purified from PBMCs (CTL, Inc.) derived from 3 healthy donor subjects in the same manner as in additional Example 6 and cultured for 6 days. After culturing for 6 days, the number of viable cells was counted by a trypan blue method and the ratio of CD25(+)FoxP3(+) cells was analyzed by FACS.
# In the FACS, the cultured cells were sorted into facs tubes, washed with a staining solution (PBS containing 2% FBS), and then stained with CD3-APC (BioLegend, 300421), CD4-BV510 (BioLegend, 317444), CD8-Pacific Blue (BD 558207), and CD25-FITC (BioLegend, 302604).
# After the cells were further washed, intracellular staining was performed using FoxP3/Transcription Factor Staining Buffer Set (eBioscience, 00-5523) and FoxP3-PE (eBioscience, 12-4776-41), and measurement was performed using a BD LSRFortessa cytometer (BD Bioscience).
# The value obtained by multiplying the positive rate of FoxP3(+) cells in the CD4(+) cells analyzed by FlowJo 9 by the number of viable cells was defined as the number of FoxP3-positive cells.
# [2] = tested on: primary T cells (CD4 T, CD8 T cells); test: Proliferation of primary T cells purified from PBMCs; conditions: 1 μM, 6 days, restimulated, further 4 days, FIG. 16
# Experimental: The effect of berbamine on proliferation of primary T cells (CD4 T, CD8 T cells) was examined. As a method therefor, CD3 T cells were purified from PBMCs (CTL, Inc.) using Pan T Cell Isolation Kit, human (Miltenyi, 130-096-535). The purified CD3 T cells (20,000 cells/well) were seeded, and berbamine (BBM) at 1 μM or MilliQ water that is a solvent for the compound as a control was added thereto, and the cells were stimulated with CD3/CD28 Dynabeads (60,000 beads/well).
# The cells were cultured for 6 days in the same culture medium as in Example 6 and restimulated. After the cells were further cultured for 4 days, the number of viable cells was counted by a trypan blue method and the ratios of CD4-positive cells and CD8-positive cells were analyzed by FACS. […]
# After washing, the cells were resuspended in 200 μL/well of the staining solution containing PI. The suspension in an amount of 100 μL/well was analyzed using a BD LSR Fortessa cytometer (BD Bioscience) equipped with HTS, and all cells were recorded.
# The value obtained by multiplying the positive rate of CD8(+) or CD4(+) cells in the PI-negative cell population analyzed by FlowJo 9 by the number of viable cells was defined as the number of CD8-positive cells or the number of CD4-positive cells. […]
# T-iPS-T cells = test: Long-term culturing of T-iPS-T cells obtained by differentiation induction using a feeder, trypan blue count; conditions: 1 μM, FIG. 15(B)
# Experimental: Further, evaluation of T-iPS-T cells obtained by differentiation induction using a feeder was also performed. The T-iPS-T cells (1,500 cells/well) obtained by differentiation induction in Example 1 were seeded, and stimulated with CD3/CD28 Dynabeads in the same manner as in Example 4, and berbamine (BBM) at 1 μM or MilliQ water that is a solvent for the compound as a control was added thereto, and the cells were cultured in the same culture medium as in Example 6. The cells were collected on day 14, day 28, and day 42, and the number of viable cells was counted by a trypan blue method, and the cells were restimulated and cultured. The cells were collected on day 56, and the number of viable cells was counted.
# naive T cells = test: Proliferation of sorted naive T cells, trypan blue count; conditions: 1 μM, naive T cells, 6, 9, 12 and 14 days, FIG. 18C
# Description: NPL 4 reports that hierarchy exists in T cells (FIG. 18A). In this Example, a fraction in which berbamine acts in T cells was verified. As a method therefor, PBMCs (CTL, Inc.) derived from a healthy subject was washed with a staining solution (PBS containing 2% FBS), and then stained with CCR7-APC (BioLegend, 353214), CD45RA-BV510 (BioLegend, 304142), CD45RO-APC-Cy7 (BioLegend, 307228), CD95-PC-Cy7 (BioLegend, 305622), CD8β-PE (Beckman, IM2217U), and CD4-BV421 (BioLegend, 317434).
# After washing, the cells were resuspended in the staining solution containing PI, and by using BD AriaII Cell Sorter (BD Bioscience), in the CD8β(+) cells, CCR7(+)CD45RA(+)CD95(−)CD45RO(−) was sorted as naive T cells, CCR7(+)CD45RA(+)CD95(+)CD45RO(+) was sorted as stem cell memory T cells, CCR7(+)CD45RA(−)CD45RO(+) was sorted as central memory T cells, and CCR7(−) CD45RA(−)CD45RO(+) was sorted as effector memory T cells.
# The respective cells (about 3,000 cells/well) were seeded, and berbamine (BBM) at 1 μM or MilliQ water that is a solvent for the compound as a control was added thereto, and the cells were stimulated with CD3/CD28 Dynabeads (about 9,000 beads/well). The cells were cultured using the same culture medium as in Example 6.
# After 6, 9, 12, and 14 days of culturing, the number of viable cells was counted by a trypan blue method. In a statistical analysis, a Student's t-test was used (*: p<0.05).
compound,measurement,setting,value
COc1cc2c3cc1Oc1c(OC)c(OC)cc4c1[C@@H](Cc1ccc(O)c(c1)Oc1ccc(cc1)C[C@@H]3N(C)CC2)N(C)CC4 [berbamine],number of FoxP3-positive cells compared with MilliQ water,[1],increase in the number of FoxP3-positive cells
same,number of CD4-positive cells compared with MilliQ water,[2],significant enhancement of cell proliferation
same,number of CD8-positive cells compared with MilliQ water,[2],significant enhancement of cell proliferation
same,period for which the cells could be cultured,"T-iPS-T cells; restimulated on day 14, 28, 42, MilliQ water control could not be cultured after day 28",56 days
same,proliferation of the cells in long-term culturing,T-iPS-T cells; vs MilliQ water,enhancement of the proliferation of the cells
same,number of viable cells compared with MilliQ water,naive T cells,significant enhancement of cell proliferation
